Assay results reported in PMC8848031 (Saudi Journal of Biological Sciences, 2021).
Several values for one entry are separate records, joined by “and”; a condition that tells them apart may be missing. Identical values can stand only once. One block for each compound: values may come before it.

Columns and labels:
[1] = biological target: Saccharomyces cerevisiae α-glucosidase (E.C 3.2.1.20) (Saccharomyces cerevisiae, UniProt P53341); test: Alpha-glucosidase inhibition assay; format: biochemical; conditions: Alpha-glucosidase inhibition IC50, isolated compounds; acarbose positive control
alpha-glucosidase [2] = biological target: alpha-glucosidase (Saccharomyces cerevisiae, UniProt P53341); test: Inhibitory type assay of BM3 on alpha-glucosidase; format: biochemical
alpha-glucosidase [3] = conditions: kinetic studies; ref Adisakwattana et al. (2009); cited from earlier work
alpha-glucosidase [4] = conditions: ref Wu et al., 2017; cited from earlier work
pancreatic lipase enzyme = conditions: extracted from T. stans leaves; ref [28]; cited from earlier work

Saccharomyces cerevisiae α-glucosidase (E.C 3.2.1.20), sequence (P53341 whole entry): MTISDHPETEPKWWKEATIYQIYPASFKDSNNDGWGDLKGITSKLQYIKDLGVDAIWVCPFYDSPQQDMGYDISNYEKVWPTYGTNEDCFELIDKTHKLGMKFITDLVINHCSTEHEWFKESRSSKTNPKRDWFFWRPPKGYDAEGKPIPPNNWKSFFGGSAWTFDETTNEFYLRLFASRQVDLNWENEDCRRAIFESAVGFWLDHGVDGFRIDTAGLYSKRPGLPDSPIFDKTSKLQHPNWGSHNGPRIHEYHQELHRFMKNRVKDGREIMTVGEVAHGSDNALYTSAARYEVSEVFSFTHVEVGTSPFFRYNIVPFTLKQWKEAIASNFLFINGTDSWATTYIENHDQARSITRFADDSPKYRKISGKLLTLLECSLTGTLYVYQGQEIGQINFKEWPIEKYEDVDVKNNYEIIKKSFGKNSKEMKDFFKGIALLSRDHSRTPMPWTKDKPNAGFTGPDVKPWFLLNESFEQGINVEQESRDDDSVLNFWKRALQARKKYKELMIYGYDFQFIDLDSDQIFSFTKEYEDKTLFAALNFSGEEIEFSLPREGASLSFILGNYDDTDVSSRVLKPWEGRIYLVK
alpha-glucosidase (Saccharomyces cerevisiae, UniProt P53341), sequence (P53341 whole entry): as above

IC50 [1]: 71 ± 2.1 µM
SMILES: COC(=O)c1cc(O)c(O)c(O)c1 [BM2, methyl gallate]

Ki (alpha-glucosidase [2]): 31.2 µM | inhibition type (alpha-glucosidase [2]; Lineweaver-Burk plots, pNPG 1, 2, 4 mM): competitive | Vmax (alpha-glucosidase [2]; no effect of increasing BM3 concentration): 0.049 µM/min | IC50 [1]: 18.2 ± 0.8 µM
SMILES: COC(=O)c1cc(O)c(O)c(OC(=O)c2cc(O)c(O)c(O)c2)c1 [BM3, 3-O-galloylgallic acid methyl ester]

IC50 [1]: 35.6 µM and 36.8 µM
SMILES: O=c1c(O[C@@H]2O[C@H](CO)[C@@H](O)[C@H](O)[C@H]2O)c(-c2ccc(O)c(O)c2)oc2cc(O)cc(O)c12 [NC2, isoquercitrin]

SMILES: O=C(O)/C=C/c1ccc(O)c(O)c1 [NC3, caffeic acid]
inhibition type (alpha-glucosidase [3]): non-competitive

IC50 [1]: 39.2 ± 0.6 µM
SMILES: C[C@H]1[C@H](C)CC[C@]2(C(=O)O)CC[C@]3(C)C(=CC[C@@H]4[C@@]5(C)CC[C@H](O)C(C)(C)[C@@H]5CC[C@]43C)[C@H]12 [TS1, ursolic acid]
inhibition of alpha-glucosidase (alpha-glucosidase [4]): strong inhibition

SMILES: COc1cc(-c2cc(=O)c3c(O)cc(O)cc3o2)ccc1O [TS3, chrysoeriol]
inhibition of pancreatic lipase enzyme (pancreatic lipase enzyme): strong inhibition
